Values joined by “and” are separate entries in the source; they are usually repeats but may differ in a detail not shown here. Equal values may be shown once.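 Values below derive from 48-hour exposures of cells grown in 96-well plates, with endpoints linearly interpolated between the two concentrations bracketing the appropriate inhibition level. Here, GI50 denotes the concentration required for 50% inhibition of growth. TGI: concentration producing complete growth inhibition.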
What was measured:
Experiment in all cases: NCI anticancer screen, dose series, 48 h
[1] = test system: HOP-62 NSCLC
[2] = test system: OVCAR-3 ovarian
[3] = test system: NCI/ADR-RES ovarian
[4] = test system: MDA-MB-435
[5] = test system: ACHN renal
[6] = test system: NCI-H460 lung
[7] = test system: SF-268 CNS
[8] = test system: MDA-N
[9] = test system: 786-0 renal
[10] = test system: SK-MEL-5 melanoma
[11] = test system: OVCAR-4 ovarian
[12] = test system: SF-539 CNS
[13] = test system: SF-295 CNS
[14] = test system: MALME-3M melanoma
[15] = test system: SK-MEL-2 melanoma
[16] = test system: SN12C renal
[17] = test system: MCF7 breast
[18] = test system: UACC-62 melanoma
[19] = test system: HS 578T breast
[20] = test system: MDA-MB-231 breast
[21] = test system: UACC-257 melanoma
[22] = test system: T-47D breast
[23] = test system: HT29 colon
[24] = test system: A549 NSCLC
[25] = test system: HCT-116 colon
[26] = test system: RXF 393 renal
[27] = test system: EKVX NSCLC
[28] = test system: HCC-2998 colon
[29] = test system: SW-620 colon
[30] = test system: SNB-75 CNS
[31] = test system: SK-MEL-28 melanoma
[32] = test system: OVCAR-5 ovarian
[33] = test system: A498 renal
[34] = test system: SR leukemia
[35] = test system: HOP-92 NSCLC
[36] = test system: NCI-H23 lung
[37] = test system: CAKI-1 renal
[38] = test system: NCI-H226 lung
[39] = test system: PC-3 prostate
[40] = test system: COLO 205 colon
[41] = test system: HCT-15 colon
[42] = test system: TK-10 renal
[43] = test system: KM12 colon
[44] = test system: UO-31 renal
[45] = test system: BT-549 breast
[46] = test system: IGROV1 ovarian
[47] = test system: OVCAR-8 ovarian
[48] = test system: MOLT-4 leukemia
[49] = test system: LOX IMVI melanoma
[50] = test system: RPMI-8226 leukemia
[51] = test system: HL-60(TB) leukemia
[52] = test system: CCRF-CEM leukemia
[53] = test system: U251 CNS
[54] = test system: SNB-19 CNS
[55] = test system: SK-OV-3 ovarian
[56] = test system: M14 melanoma
[57] = test system: DU-145 prostate
[58] = test system: NCI-H522 lung

CC1(C)CCC2=C(O1)c1ccccc1C(=O)C2=O
GI50 [1]: 1820 nM
TGI [1]: 4140 nM and 1480 nM
GI50 [2]: 1310 nM
TGI [2]: 2900 nM and 698 nM
GI50 [3]: 445 nM and 481 nM
TGI [3]: 2690 nM and 1800 nM
GI50 [4]: 191 nM
GI50 [5]: 1620 nM and 1020 nM
TGI [5]: 2970 nM and 2180 nM
GI50 [6]: 1880 nM and 323 nM
TGI [6]: 3690 nM and 1150 nM
GI50 [7]: 1440 nM
TGI [7]: 3320 nM and 1830 nM
TGI [8]: 363 nM
GI50 [9]: 1990 nM
TGI [9]: 3940 nM and 2680 nM
GI50 [10]: 1010 nM
TGI [10]: 2190 nM and 714 nM
GI50 [11]: 1270 nM
TGI [11]: 2530 nM and 5780 nM
GI50 [12]: 1630 nM
TGI [12]: 2990 nM and 918 nM
GI50 [13]: 1670 nM
TGI [13]: 3100 nM and 1680 nM
GI50 [14]: 1510 nM
TGI [14]: 2840 nM and 974 nM
GI50 [15]: 2050 nM
TGI [15]: 4130 nM and 3070 nM
GI50 [16]: 855 nM
TGI [16]: 2200 nM and 1040 nM
GI50 [17]: 1530 nM
TGI [17]: 3600 nM and 1050 nM
GI50 [18]: 1790 nM
TGI [18]: 3300 nM and 957 nM
TGI [19]: 6320 nM and 643 nM
GI50 [20]: 2010 nM
TGI [20]: 5550 nM and 1670 nM
GI50 [21]: 1560 nM
TGI [21]: 3050 nM and 429 nM
GI50 [22]: 1490 nM
TGI [22]: 4400 nM and 1870 nM
GI50 [23]: 3430 nM
TGI [23]: > 100000 nM
GI50 [24]: 2150 nM
TGI [24]: 5140 nM and 1730 nM
GI50 [25]: 511 nM
TGI [25]: 2010 nM and 738 nM
GI50 [26]: 1660 nM
TGI [26]: 3040 nM and 2940 nM
TGI [27]: 3780 nM and 3590 nM
GI50 [28]: 1760 nM
TGI [28]: 3250 nM
GI50 [29]: 1860 nM
TGI [29]: 3930 nM and 1090 nM
GI50 [30]: 1640 nM
TGI [30]: 3010 nM and 1350 nM
GI50 [31]: 1880 nM and 406 nM
TGI [31]: 3390 nM and 1440 nM
GI50 [32]: 1810 nM
TGI [32]: 3330 nM and 1020 nM
TGI [33]: 11300 nM
GI50 [34]: 3990 nM
TGI [34]: > 100000 nM
GI50 [35]: 1720 nM
TGI [35]: 3330 nM and 10400 nM
GI50 [36]: 1570 nM
TGI [36]: 3910 nM and 1090 nM
GI50 [37]: 1740 nM
TGI [37]: 3130 nM and 2470 nM
GI50 [38]: 1840 nM
TGI [38]: 3770 nM and 2890 nM
GI50 [39]: 1240 nM
TGI [39]: 3010 nM and 6310 nM
TGI [40]: 3630 nM
GI50 [41]: 739 nM and 537 nM
TGI [41]: 2330 nM and 1790 nM
GI50 [42]: 1830 nM
TGI [42]: 3340 nM and 4560 nM
GI50 [43]: 1700 nM
TGI [43]: 3380 nM and 2130 nM
GI50 [44]: 1540 nM and 1050 nM
TGI [44]: 2890 nM and 2230 nM
GI50 [45]: 1510 nM
TGI [45]: 2920 nM and 1740 nM
GI50 [46]: 1800 nM and 1780 nM
TGI [46]: 3550 nM and 3390 nM
GI50 [47]: 530 nM
TGI [47]: 2270 nM and 1590 nM
GI50 [48]: 2670 nM
TGI [48]: 7920 nM
GI50 [49]: 330 nM and 309 nM
TGI [49]: 1310 nM and 934 nM
GI50 [50]: 1460 nM
TGI [50]: 5760 nM and 1480 nM
GI50 [51]: 2830 nM
TGI [51]: > 100000 nM
GI50 [52]: 3300 nM
TGI [52]: > 100000 nM
GI50 [53]: 1490 nM
TGI [53]: 2950 nM and 1130 nM
GI50 [54]: 1600 nM and 1710 nM
TGI [54]: 3080 nM and 3110 nM
TGI [55]: 3940 nM
GI50 [56]: 1690 nM
TGI [56]: 3310 nM and 801 nM
GI50 [57]: 1710 nM
TGI [57]: 3080 nM and 1400 nM
GI50 [58]: 1890 nM
TGI [58]: 4790 nM and 1520 nM
